{"source": "patent US4537774A", "about": "“Hot-water extracts of neem bark” (priority 1980, dated 1985)", "key": {"[1]": {"system": "sarcoma 180 ascites tumor", "experiment": "Effects on sarcoma 180 ascites tumor (Test III)", "assay_type": "in vivo, mouse", "settings": "for Rating / T/C (%): Table III, i.p.; for T/C (%): TPCV ratio", "method": "A portion of each of the extraction fractions was suspended or dissolved in 0.5% suspension of carboxymethylcellulose (CMC) in a phosphate buffer saline solution (PBS commercially available from GIBCO Laboratories, containing ca. 9.5 mM phosphate) to a predetermined concentration.\nMouse sarcoma 180 tumor cells which have been subcultivated intraperitoneally in ICR mice were drawn from the mouse together with the ascites and diluted with physiological saline solution to a cell count of 10^8 per ml. The tumor cell suspension thus prepared was transplanted by means of a syringe intraperitoneally into 4 week-old male ICR mice at a dose of 0.1 ml. Consequently, the cell count transplanted per mouse was 1×10^7.\nThe test material as prepared above was intraperitoneally administered at a dose of 0.1 ml. per mouse for 4 days once a day from the next day of the transplantation of mouse sarcoma 180 tumor cells. A group of 6 mice was employed for each concentration of each test material. […] As a control was administered the CMC-containing PBS as described above only in the same way as above. The dose is expressed as weight per kg. bodyweight of mouse.\nOn the 7th day of transplantation of the tumor cells bodyweight of each mouse was measured (X). Then, ascites was thoroughly drawn from the mouse, followed by measurement of the bodyweight (Y). X-Y is taken as the amount of ascites.\nThe drawn ascites was then introduced into a hematocrit tube and then centrifuged at 15,000 G for 5 minutes using a hematocrit rotor at a low temperature. There was thus made determination of the ascitocrit value, that is, proportion of the cells present in the ascites which corresponded to the hematocrit value in hematology. The value multiplied by volume of the ascites gives the volume of the cells present in the ascites. This is designated as total packed cell volume (TPCV).\nEffect on the tumor was rated ineffective (-) when the TPCV ratio of the treated to the control (T/C) was 100-66%, plus 1 (+) when it was 65-41%, plus 2 (++) when it was 40-11%, and plus 3 (+++) when it was 10-0%.\n(§1) The neem extracts produced in the above examples were tested for effects on sarcoma 180 ascites and solid tumors according to the methods described in the aforementioned Tests."}, "sarcoma 180 solid tumor": {"system": "sarcoma 180 solid tumor", "experiment": "Effects on sarcoma 180 solid tumor (Test IV)", "assay_type": "in vivo, mouse", "settings": "for Rating / T/C (%): Table IV; for T/C (%): tumor weight ratio", "method": "Test materials were prepared in the same manner as in Test III under (1).\nA cell suspension containing 1×10^8 cells per ml. was prepared in the same way as in Test III under (2). Four week old-ICR mice was innoculated subcutaneously on the back with 0.1 ml. of the suspension by means of a syringe.\nAs in Test III under (3), a group of 6 animals was used for each concentration of each test material.\nGrown tumor tissue was resected on the […] of the tumor cell transplantation and weighed. An average for the group of 6 animals was taken for the evaluation. The effect was evaluated on the basis of ratio of the average weight for the treated animals to that of the control animals (T/C). […] Ratios (T/C) of 100-71% were rated ineffective (-), of 70-51% plus 1 (+), of 50-21% plus 2 (++), and of 20-0% plus 3 (+++).\nas §1"}, "mouse L-5178Y cells": {"system": "mouse L-5178Y cells", "experiment": "Effects on mouse L-5178Y cells (Test II)", "assay_type": "cell-based", "method": "A medium containing 1×10^5 cells/ml. was prepared using mouse L-5178Y cells cultivated on RPMI-1640 medium containing 10% fetal bovine serum for 3 days. The medium was placed in a 96-well U-type microplate in an amount of 50 μl. per well.\nA portion of the test material, which was one of the extracts according to the invention described in the above examples, was dissolved in the medium to a final concentration in the medium as shown in Table II below. The amount of the solution per well was 50 μl. The test material thus prepared was incubated in a carbon-dioxide incubator at 37° C. for 2 days. After completion of the incubation, the cells were collected and counted well by well, and the cell counts were compared with cell count of control which contained no test material. The cell count of control was approximately 8.6×10^5 /ml. In order to confirm the effects of the test materials, the same test was done with mitomycin C (MMC) or bleomycin (BLM). In the table below, T/C represents the ratio of count of the cells treated with the test material to that with no test material added. ID50 is the concentration of the test material required for decreasing concentration of the cells to 1/2 that of the control."}, "[2]": {"settings": "dose 0.1 μg./kg. (so in the source)"}, "[3]": {"settings": "dose 10 μg./kg. (so in the source)"}, "[4]": {"settings": "dose 20 μg./kg. (so in the source)"}, "[5]": {"settings": "dose 33 μg./kg. (so in the source)"}, "[6]": {"settings": "dose 0.5 μg./kg. (so in the source)"}, "[7]": {"settings": "dose 1.5 μg./kg. (so in the source)"}, "[8]": {"settings": "Tables V/VII, mice, 1.5 mg./kg."}}, "note": "Starred links: 1 amine or outer side, 2 acyl side, 3 side chain; linkers in the order of their positions; H or OH if unused. Positions of bridges follow the written chain, without caps; N, C: chain ends. Non-standard residues stand in square brackets, D forms with d. Residues, ends and D or L forms follow the SMILES beside them. Chains are numbered I, II in the order given. Actinocin(9to1) = Cc1c2oc3c(C)ccc(C(=O)[*:1])c3nc-2c(C(=O)[*:2])c(N)c1=O; NMeV = CN[C@H](C(=O)O)C(C)C; Sar = CNCC(=O)O", "data": [{"compound": "Cc1c2oc3c(C)ccc(C(=O)N[C@@H]4C(=O)N[C@H](C(C)C)C(=O)N5CCC[C@H]5C(=O)N(C)CC(=O)N(C)[C@@H](C(C)C)C(=O)O[C@@H]4C)c3nc-2c(C(=O)N[C@@H]2C(=O)N[C@H](C(C)C)C(=O)N3CCC[C@H]3C(=O)N(C)CC(=O)N(C)[C@@H](C(C)C)C(=O)O[C@@H]2C)c(N)c1=O", "note": "[ACD, actinomycin D] (I: T[dV]P[Sar][NMeV] / II: T[dV]P[Sar][NMeV]; ester I:1-I:C, II:1-II:C; linker I:N-II:N via Actinocin(9to1))", "values": [{"measurement": "Rating", "setting": "[1]; [2]", "value": "+++ (plus 3 (+++) when it was 10-0%)"}, {"measurement": "T/C (%)", "setting": "[1]; [2]", "value": 0, "unit": "%"}, {"measurement": "Rating", "setting": "sarcoma 180 solid tumor; dose 0.1 mg./kg.", "value": "- (Ratios (T/C) of 100-71% were rated ineffective (-))"}, {"measurement": "T/C (%)", "setting": "sarcoma 180 solid tumor; dose 0.1 mg./kg.", "value": 102.4, "unit": "%"}]}, {"compound": "bleomycin [BLM]", "values": [{"measurement": "ID50", "setting": "mouse L-5178Y cells; 37° C., 2 days", "value": 7.8, "unit": "µg/mL"}, {"measurement": "Rating", "setting": "[1]; [3]", "value": "+++ (plus 3 (+++) when it was 10-0%)"}, {"measurement": "T/C (%)", "setting": "[1]; [3]", "value": 0, "unit": "%"}, {"measurement": "Rating", "setting": "sarcoma 180 solid tumor; dose 10 mg./kg.", "value": "++ (of 50-21% plus 2 (++))"}, {"measurement": "T/C (%)", "setting": "sarcoma 180 solid tumor; dose 10 mg./kg.", "value": 43.5, "unit": "%"}]}, {"compound": "O=c1[nH]cc(F)c(=O)[nH]1", "note": "[Example 5-Fu, 5-fluorouracil]", "values": [{"measurement": "Rating", "setting": "[1]; [4]", "value": "+++ (plus 3 (+++) when it was 10-0%)"}, {"measurement": "T/C (%)", "setting": "[1]; [4]", "value": 0, "unit": "%"}, {"measurement": "Rating", "setting": "sarcoma 180 solid tumor; dose 20 mg./kg.", "value": "+ (of 70-51% plus 1 (+))"}, {"measurement": "T/C (%)", "setting": "sarcoma 180 solid tumor; dose 20 mg./kg.", "value": 47.8, "unit": "%"}]}, {"compound": "O=P1(N(CCCl)CCCl)NCCCO1", "note": "(stereo not drawn) [CYP, cyclophosphamide]", "values": [{"measurement": "Rating", "setting": "[1]; [5]", "value": "+++ (plus 3 (+++) when it was 10-0%)"}, {"measurement": "T/C (%)", "setting": "[1]; [5]", "value": 0, "unit": "%"}, {"measurement": "Rating", "setting": "sarcoma 180 solid tumor; dose 33 mg./kg.", "value": "+++ (of 20-0% plus 3 (+++))"}, {"measurement": "T/C (%)", "setting": "sarcoma 180 solid tumor; dose 33 mg./kg.", "value": 0, "unit": "%"}]}, {"compound": "CO[C@@]12[C@H](COC(N)=O)C3=C(C(=O)C(C)=C(N)C3=O)N1C[C@@H]1N[C@@H]12", "note": "[MMC, mitomycin C]", "values": [{"measurement": "IC50", "setting": "mouse L-5178Y cells; Mus musculus, L5178Y, 48 h, read-out: ID50", "value": 0.09, "unit": "µg/mL"}, {"measurement": "Rating", "setting": "[1]; [6]", "value": "+++ (plus 3 (+++) when it was 10-0%)"}, {"measurement": "T/C (%)", "setting": "[1]; [6]", "value": 0, "unit": "%"}, {"measurement": "Rating", "setting": "[1]; [7]", "value": "+++ (plus 3 (+++) when it was 10-0%)"}, {"measurement": "T/C (%)", "setting": "[1]; [7]", "value": 0, "unit": "%"}, {"measurement": "Ascites tumor Rating", "setting": "[1]; [8]", "value": "+++ (plus 3 (+++) when it was 10-0%)"}, {"measurement": "Ascites tumor T/C", "setting": "[1]; [8]", "value": 0}, {"measurement": "Rating", "setting": "sarcoma 180 solid tumor; dose 0.5 mg./kg.", "value": "- (Ratios (T/C) of 100-71% were rated ineffective (-))"}, {"measurement": "T/C (%)", "setting": "sarcoma 180 solid tumor; dose 0.5 mg./kg.", "value": 71.0, "unit": "%"}, {"measurement": "Rating", "setting": "sarcoma 180 solid tumor; dose 1.5 mg./kg.", "value": "++ (of 50-21% plus 2 (++))"}, {"measurement": "T/C (%)", "setting": "sarcoma 180 solid tumor; dose 1.5 mg./kg.", "value": 32.5, "unit": "%"}, {"measurement": "Solid tumor Rating", "setting": "sarcoma 180 solid tumor; [8]", "value": "++ (of 50-21% plus 2 (++))"}, {"measurement": "Solid tumor T/C", "setting": "sarcoma 180 solid tumor; [8]", "value": 38.9}]}]}
